Measured values reported in ChEMBL document CHEMBL2177010, “Discovery and preclinical pharmacology of a selective ATP-competitive Akt inhibitor (GDC-0068) for the treatment of human tumors” (J Med Chem, 2012).
The source made the active and inactive calls. No cut-off for these calls is given here.

Key:
[1] = Competitive inhibition of PKA expressed in Escherichia coli assessed as fluorescence labeled peptide substrate phosphorylation after 60 mins in presence of ATP
[2] = biological target: T1, RAC-alpha serine/threonine-protein kinase (Homo sapiens, UniProt P31749)
T1 sequence (P31749 whole entry): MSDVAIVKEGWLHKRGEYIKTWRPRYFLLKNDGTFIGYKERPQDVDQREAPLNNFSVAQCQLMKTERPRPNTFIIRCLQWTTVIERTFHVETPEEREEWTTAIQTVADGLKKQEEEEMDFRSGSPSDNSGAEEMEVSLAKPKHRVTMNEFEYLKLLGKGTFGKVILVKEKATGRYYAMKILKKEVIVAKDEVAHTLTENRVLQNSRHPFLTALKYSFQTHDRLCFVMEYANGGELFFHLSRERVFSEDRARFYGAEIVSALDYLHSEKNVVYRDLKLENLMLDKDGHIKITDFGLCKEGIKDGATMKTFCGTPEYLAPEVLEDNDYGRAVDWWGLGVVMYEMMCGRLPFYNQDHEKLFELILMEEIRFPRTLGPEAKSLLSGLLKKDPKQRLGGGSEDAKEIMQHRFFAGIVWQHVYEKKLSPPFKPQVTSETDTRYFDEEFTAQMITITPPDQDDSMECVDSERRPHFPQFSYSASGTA
Description: Competitive inhibition of wild-type full-length amino-terminal polyhistidine-tagged human Akt1 expressed in recombinant baculovirus system using fluorescence labeled substrate after 60 mins by fluorescence polarization assay in presence of ATP

[3] = biological target: T1, RAC-alpha serine/threonine-protein kinase; remark: listed apart in the source
Description: Inhibition of Akt1 in human LNCAP cells assessed as phosphorylation of PRAS40 at Thr246 after 1.5 hrs

[4] = biological target: RAC-gamma serine/threonine-protein kinase (Homo sapiens, UniProt Q9Y243)
RAC-gamma serine/threonine-protein kinase, sequence (Q9Y243 whole entry): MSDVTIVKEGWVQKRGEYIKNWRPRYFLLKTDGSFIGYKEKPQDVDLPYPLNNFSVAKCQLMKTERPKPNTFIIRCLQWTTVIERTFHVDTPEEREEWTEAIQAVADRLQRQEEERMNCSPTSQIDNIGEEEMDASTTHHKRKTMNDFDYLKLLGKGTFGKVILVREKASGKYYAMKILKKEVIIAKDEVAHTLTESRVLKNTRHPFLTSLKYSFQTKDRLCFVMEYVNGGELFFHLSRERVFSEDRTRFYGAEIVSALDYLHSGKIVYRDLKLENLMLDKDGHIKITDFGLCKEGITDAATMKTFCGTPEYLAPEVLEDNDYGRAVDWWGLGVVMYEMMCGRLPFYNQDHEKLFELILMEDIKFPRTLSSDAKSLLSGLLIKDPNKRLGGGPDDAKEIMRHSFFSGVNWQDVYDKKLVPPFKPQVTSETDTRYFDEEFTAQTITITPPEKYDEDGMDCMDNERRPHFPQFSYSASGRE
Description: Competitive inhibition of wild-type full-length amino-terminal polyhistidine-tagged human Akt3 expressed in recombinant baculovirus system using fluorescence labeled Crosstide as substrate after 60 mins by fluorescence polarization assay in presence of ATP

[5] = Permeability across apical to basolateral side in human Caco2 cells; type: ADME, cell-based; conditions: Caco-2, read-out: permeability
[6] = Permeability across basolateral to apical side in human Caco2 cells; type: ADME, cell-based; conditions: Caco-2, read-out: permeability
PC-3 [7] = experiment: Antitumor activity against human PC3 xenografted in po dosed nu/nu mouse assessed as inhibition of tumor growth administered once daily measured after 11 days; type: functional; conditions: PC-3, po, 264 h, read-out: MED
PC-3 [8] = experiment: Antitumor activity against human PC3 xenografted in nu/nu mouse assessed as inhibition of tumor growth at 50 mg/kg, po bid after 11 days; type: functional; conditions: PC-3, 264 h, read-out: TGI
PC-3 [9] = experiment: Antitumor activity against human PC3 xenografted in nu/nu mouse assessed as inhibition of tumor growth at 100 mg/kg, po qd after 11 days; type: functional; conditions: PC-3, 264 h, read-out: TGI
PC-3 [10] = experiment: Antitumor activity against human PC3 xenografted in nu/nu mouse assessed as inhibition of tumor growth at 25 mg/kg, po qd after 11 days; type: functional; conditions: PC-3, 264 h, read-out: TGI
Mus musculus [11] = experiment: Toxicity in nu/nu mouse xenografted with human PC3 cells assessed as loss in body weight at 150 mg/kg, po qd after 8 days relative to vehicle-treated control; type: organism-based, PC-3; set-up: dose 150 mg/kg, route oral; conditions: in vivo, 192 h
Mus musculus [12] = experiment: Toxicity in nu/nu mouse xenografted with human PC3 cells assessed as loss in body weight at 1 to 100 mg/kg, po qd relative to vehicle-treated control; type: organism-based, PC-3; set-up: dose 1-100 mg/kg, route oral; conditions: in vivo
Mus musculus [13] = experiment: Inhibition of Akt in nu/nu mouse xenografted with human PC3 cells assessed as decrease in tumor p-PRAS40 level at 100 mg/kg, po at 8 hrs by ELISA relative to total PRAS40; type: functional; conditions: PC-3, 8 h
[14] = Plasma concentration in nu/nu mouse xenografted with human PC3 cells at 100 mg/kg, po at 8 hrs by LC/MS/MS analysis; type: ADME, organism-based, PC-3; set-up: dose 100 mg/kg, route oral
Mus musculus [15] = experiment: Inhibition of Akt in nu/nu mouse xenografted with human PC3 cells assessed as decrease in tumor p-PRAS40 level at 100 mg/kg, po within 3 hrs by ELISA relative to total PRAS40; type: functional; conditions: PC-3, 3 h
[16] = Plasma concentration in nu/nu mouse xenografted with human PC3 cells at 50 mg/kg, po at 9 hrs by LC/MS/MS analysis; type: ADME, organism-based, PC-3; set-up: dose 50 mg/kg, route oral
[17] = Plasma concentration in nu/nu mouse xenografted with human PC3 cells at 50 mg/kg, po at 1 hr by LC/MS/MS analysis; type: ADME, organism-based, PC-3; set-up: dose 50 mg/kg, route oral
[18] = Plasma concentration in nu/nu mouse xenografted with human PC3 cells at 50 mg/kg, po within 1 hr by LC/MS/MS analysis; type: ADME, organism-based, PC-3; set-up: dose 50 mg/kg, route oral
[19] = Plasma concentration in nu/nu mouse xenografted with human PC3 cells at 12.5 mg/kg, po within 1 hr by LC/MS/MS analysis; type: ADME, organism-based, PC-3; set-up: dose 12.5 mg/kg, route oral
BT-474 = experiment: Cytotoxicity against human BT474M1 cells assessed as decrease in cell viability after 96 hrs by CellTitre-Glo assay; conditions: BT474M1, 96 h
MCF7 = experiment: Cytotoxicity against human MCF7 cells overexpressing Her2 assessed as decrease in cell viability after 96 hrs by CellTitre-Glo assay; conditions: MCF7, 96 h
PC-3 [20] = experiment: Cytotoxicity against human PC3 cells assessed as decrease in cell viability after 96 hrs by CellTitre-Glo assay; conditions: PC-3, 96 h
LNCaP = experiment: Cytotoxicity against human LNCAP cells assessed as reduction of resazurin to resorufin after 72 hrs
[21] = Solubility of the compound at pH 1.2 to 7.4; type: physicochemical; conditions: buffer
[22] = biological target: T1, RAC-alpha serine/threonine-protein kinase; conditions: BT474M1
Description: Inhibition of Akt1-mediated PRAS40 phosphorylation in human BT474M1 cells

C[C@@H]1C[C@@H](O)c2ncnc(N3CCN(C(=O)[C@H](CNC4CCCCC4)c4ccc(Cl)cc4)CC3)c21
IC50 [1]: 1280 nM | IC50 [2]: 9 nM | IC50 [3]: 367 nM | IC50 [4]: 7 nM

C[C@@H]1C[C@@H](O)c2ncnc(N3CCN(C(=O)[C@H](CNCC4CC4)c4ccc(C(F)(F)F)c(F)c4)CC3)c21
IC50 [1]: 103 nM | IC50 [4]: 2 nM

COCCNC[C@@H](C(=O)N1CCN(c2ncnc3c2[C@H](C)C[C@H]3O)CC1)c1ccc(Cl)cc1
IC50 [1]: 1000 nM | IC50 [2]: 8 nM | IC50 [3]: 384 nM | IC50 [4]: 13 nM

C[C@@H]1C[C@@H](O)c2ncnc(N3CCN(C(=O)[C@H](CNC4CCOCC4)c4ccc(Cl)cc4)CC3)c21
IC50 [1]: 654 nM

C[C@@H]1C[C@@H](O)c2ncnc(N3CCN(C(=O)[C@H](CN)c4ccc(Cl)cc4)CC3)c21
IC50 [1]: 700 nM | IC50 [2]: 24 nM | IC50 [3]: 1450 nM | IC50 [4]: 45 nM

C[C@@H]1C[C@@H](O)c2ncnc(N3CCN(C(=O)[C@H](CNCC4CCOCC4)c4ccc(Cl)cc4)CC3)c21
IC50 [1]: 436 nM | IC50 [2]: 3 nM | IC50 [3]: 102 nM | IC50 [4]: 4 nM

C=C[C@@H]1CCc2ncnc(N3CCN(C(=O)[C@H](CNC(C)C)c4ccc(Cl)cc4)CC3)c21
IC50 [1]: 10 nM | IC50 [2]: 2 nM | IC50 [3]: 176 nM | IC50 [4]: 1 nM

C[C@@H]1C[C@@H](O)c2ncnc(N3CCN(C(=O)[C@H](CN4CCC(F)CC4)c4ccc(Cl)cc4)CC3)c21
IC50 [1]: 1200 nM | IC50 [2]: 6 nM | IC50 [3]: 196 nM

CC(C)NC[C@@H](C(=O)N1CCN(c2ncnc3c2[C@H](C)C[C@H]3O)CC1)c1ccc(Cl)c(F)c1
IC50 [1]: 490 nM | IC50 [2]: 3 nM | IC50 [3]: 234 nM | IC50 [4]: 7 nM

CC(C)NC[C@@H](C(=O)N1CCN(c2ncnc3c2[C@H](CF)CC3)CC1)c1ccc(Cl)cc1
IC50 [1]: 35 nM | IC50 [2]: 3 nM | IC50 [3]: 123 nM | IC50 [4]: 5 nM

CC(C)NC[C@@H](C(=O)N1CCN(c2ncnc3c2[C@H](C)C[C@@H]3O)CC1)c1ccc(Cl)cc1
IC50 [1]: 1550 nM

CC(C)NC[C@@H](C(=O)N1CCN(c2ncnc3c2[C@H](C)C[C@@H]3F)CC1)c1ccc(Cl)cc1
IC50 [1]: 541 nM | IC50 [4]: 23 nM

C[C@@H]1C[C@@H](O)c2ncnc(N3CCN(C(=O)[C@H](CNCCF)c4ccc(Cl)cc4)CC3)c21
IC50 [1]: 1320 nM | IC50 [2]: 12 nM | IC50 [3]: 1300 nM | IC50 [4]: 21 nM

C[C@@H]1C[C@@H](O)c2ncnc(N3CCN(C(=O)[C@@H](c4ccc(Cl)cc4)[C@@H]4CCCN4)CC3)c21
IC50 [1]: 271 nM | IC50 [2]: 3 nM | IC50 [3]: 241 nM | IC50 [4]: 5 nM

CC(C)N(C)C[C@@H](C(=O)N1CCN(c2ncnc3c2[C@H](C)C[C@H]3O)CC1)c1ccc(Cl)cc1
IC50 [1]: 2140 nM | IC50 [2]: 18 nM | IC50 [3]: 139 nM

CC(C)NC[C@@H](C(=O)N1CCN(c2ncnc3c2C(C)(C)CC3)CC1)c1ccc(Cl)cc1
IC50 [1]: > 2000 nM | IC50 [4]: > 2000 nM

C[C@@H]1C[C@@H](O)c2ncnc(N3CCN(C(=O)[C@@H](c4ccc(Cl)cc4)[C@@H]4CCCCN4)CC3)c21
IC50 [1]: 1600 nM | IC50 [2]: 9 nM | IC50 [3]: 530 nM | IC50 [4]: 12 nM

CC(C)NC[C@@H](C(=O)N1CCN(c2ncnc3c2[C@H](C)CC3)CC1)c1ccc(Cl)cc1
IC50 [1]: 33 nM | Papp A→B [5]: 13.2 ×10⁻⁶ cm/s | Papp B→A [6]: 19.2 ×10⁻⁶ cm/s | IC50 [2]: 6 nM | IC50 [3]: 287 nM | IC50 [4]: 5 nM

C[C@@H]1C[C@@H](O)c2ncnc(N3CCN(C(=O)[C@H](CNC4CCOCC4)c4ccc(Cl)c(F)c4)CC3)c21
IC50 [1]: 556 nM | IC50 [2]: 12 nM | IC50 [3]: 139 nM | IC50 [4]: 12 nM

C[C@@H]1C[C@@H](O)c2ncnc(N3CCN(C(=O)[C@H](CNC(C)(C)CO)c4ccc(C(F)(F)F)c(F)c4)CC3)c21
IC50 [1]: 75 nM | IC50 [4]: 2 nM

CC(C)NC[C@@H](C(=O)N1CCN(c2ncnc3c2[C@H](C)CC3(F)F)CC1)c1ccc(Cl)cc1
IC50 [1]: > 10000 nM | IC50 [2]: 1170 nM | IC50 [3]: 8550 nM

C[C@@H]1C[C@@H](O)c2ncnc(N3CCN(C(=O)[C@H](CNCC4CC4)c4ccc(Cl)cc4)CC3)c21
IC50 [1]: 777 nM

CC(C)NC[C@@H](C(=O)N1CCN(c2ncnc3c2[C@H](C)C[C@H]3O)CC1)c1ccc(Cl)cc1 [IPATASERTIB]
minimal effective dose (PC-3 [7]): 25 mg/kg | IC50 [1]: 3100 nM | inhibition in vivo at 50 mg/kg (PC-3 [8]): 81% | inhibition in vivo at 100 mg/kg (PC-3 [9]): 79% | inhibition in vivo at 25 mg/kg (PC-3 [10]): 49% | Activity (Mus musculus [11]): >= 20% | Activity (Mus musculus [12]): < 10% | inhibition in vivo at 100 mg/kg (Mus musculus [13]): 87% | concentration at 8 h [14]: > 2600 nM | inhibition in vivo at 100 mg/kg (Mus musculus [15]): > 95% | concentration at 9 h [16]: 500 nM | concentration at 1 h [17]: 7.4 µM | concentration at 1 h [18]: ≥ 200 nM | concentration at 1 h [19]: ≥ 200 nM | IC50 (BT-474): 1000 nM | IC50 (MCF7): 1000 nM | IC50 (PC-3 [20]): 1000 nM | IC50 (LNCaP): 95 nM | solubility [21]: > 10000 µg/mL | inhibition [22]: Active

C[C@@H]1C[C@@H](O)c2ncnc(N3CCN(C(=O)[C@H](CNCC(F)(F)F)c4ccc(Cl)cc4)CC3)c21
IC50 [1]: > 10000 nM | IC50 [2]: 902 nM | IC50 [4]: 798 nM

C[C@@H]1C[C@@H](O)c2ncnc(N3CCN(C(=O)[C@H](CN)c4ccc(C(F)(F)F)cc4)CC3)c21
IC50 [1]: 418 nM | IC50 [2]: 12 nM | IC50 [3]: 603 nM | IC50 [4]: 27 nM

C[C@@H]1C[C@@H](O)c2ncnc(N3CCN(C(=O)[C@@H](c4ccc(Cl)cc4)[C@@H]4COCCN4)CC3)c21
IC50 [1]: 1360 nM | IC50 [2]: 12 nM | IC50 [3]: 855 nM | IC50 [4]: 26 nM

CC(C)NC[C@@H](C(=O)N1CCN(c2ncnc3c2[C@H](CO)CC3)CC1)c1ccc(Cl)cc1
IC50 [1]: 957 nM | IC50 [2]: 81 nM | IC50 [3]: 846 nM | IC50 [4]: 83 nM

CC(C)NC[C@@H](C(=O)N1CCN(c2ncnc3c2[C@H](C)C[C@H]3F)CC1)c1ccc(Cl)cc1
IC50 [1]: 17 nM | IC50 [4]: 10 nM

CO[C@H]1CC[C@H](NC[C@@H](C(=O)N2CCN(c3ncnc4c3[C@H](C)C[C@H]4O)CC2)c2ccc(Cl)cc2)CC1
IC50 [1]: 662 nM | IC50 [2]: 5 nM | IC50 [3]: 132 nM | IC50 [4]: 4 nM

C[C@@H]1C[C@@H](O)c2ncnc(N3CCN(C(=O)[C@H](CNC(C)(C)C)c4ccc(C(F)(F)F)c(F)c4)CC3)c21
IC50 [1]: 153 nM

C[C@@H]1C[C@@H](O)c2ncnc(N3CCN(C(=O)[C@H](CNC(C)(C)CO)c4ccc(Cl)cc4)CC3)c21
IC50 [1]: 293 nM | IC50 [2]: 2 nM | IC50 [3]: 75 nM | IC50 [4]: 3 nM
